Data from ChEMBL document CHEMBL1140734, “Identification of novel, water-soluble, 2-amino-N-pyrimidin-4-yl acetamides as A2A receptor antagonists with in vivo efficacy” (J Med Chem, 2008).
Values after ≈ are worked out from the molar mass of the structure shown.

Experiments:
[1] = target: T1, Adenosine receptor A1 (Homo sapiens, UniProt P30542); experiment: biochemical
T1 sequence (P30542 whole entry): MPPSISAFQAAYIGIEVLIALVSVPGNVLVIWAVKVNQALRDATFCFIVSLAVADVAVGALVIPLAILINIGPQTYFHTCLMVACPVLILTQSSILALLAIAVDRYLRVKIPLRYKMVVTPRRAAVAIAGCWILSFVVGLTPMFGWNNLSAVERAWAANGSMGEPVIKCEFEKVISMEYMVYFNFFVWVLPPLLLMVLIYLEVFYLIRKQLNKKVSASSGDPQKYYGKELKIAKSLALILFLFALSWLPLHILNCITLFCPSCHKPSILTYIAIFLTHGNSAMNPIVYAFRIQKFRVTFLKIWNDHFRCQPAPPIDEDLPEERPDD
Description: Displacement of [3H]DPCPX from human recombinant adenosine A1 receptor expressed in HEK293 cells

[2] = target: Adenosine receptor A2a (Homo sapiens, UniProt P29274); experiment: biochemical
Chain of Adenosine receptor A2a (Homo sapiens, UniProt P29274) (P29274 whole entry): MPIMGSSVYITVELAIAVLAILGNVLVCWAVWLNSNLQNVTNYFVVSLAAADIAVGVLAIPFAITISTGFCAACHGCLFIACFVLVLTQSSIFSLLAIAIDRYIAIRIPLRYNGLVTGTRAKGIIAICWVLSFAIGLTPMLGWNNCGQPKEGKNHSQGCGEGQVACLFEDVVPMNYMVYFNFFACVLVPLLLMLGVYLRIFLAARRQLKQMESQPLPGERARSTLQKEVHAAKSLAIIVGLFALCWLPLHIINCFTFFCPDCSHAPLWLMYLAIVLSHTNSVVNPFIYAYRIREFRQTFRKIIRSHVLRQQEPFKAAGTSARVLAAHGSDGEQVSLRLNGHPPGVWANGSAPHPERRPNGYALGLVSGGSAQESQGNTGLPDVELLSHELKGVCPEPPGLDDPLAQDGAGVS
Description: Displacement of [3H]ZM-241385 from human recombinant adenosine A2A receptor expressed in HEK293 cells

[3] = organism: Homo sapiens; experiment: Selectivity for human adenosine A2A receptor over human adenosine A1 receptor
[4] = Metabolic stability assessed as intrinsic clearance in human liver microsomes; type: ADME, Microsome
[5] = Solubility in PBS at pH 7.4; type: physicochemical
[6] = Lipophilicity, log D of the compound; type: physicochemical; details: octanol/water
[7] = target: T2, Adenosine receptor A3 (Homo sapiens, UniProt P0DMS8); experiment: Displacement of [125I]AB-MECA from human adenosine A3 receptor
T2 sequence (P0DMS8 whole entry): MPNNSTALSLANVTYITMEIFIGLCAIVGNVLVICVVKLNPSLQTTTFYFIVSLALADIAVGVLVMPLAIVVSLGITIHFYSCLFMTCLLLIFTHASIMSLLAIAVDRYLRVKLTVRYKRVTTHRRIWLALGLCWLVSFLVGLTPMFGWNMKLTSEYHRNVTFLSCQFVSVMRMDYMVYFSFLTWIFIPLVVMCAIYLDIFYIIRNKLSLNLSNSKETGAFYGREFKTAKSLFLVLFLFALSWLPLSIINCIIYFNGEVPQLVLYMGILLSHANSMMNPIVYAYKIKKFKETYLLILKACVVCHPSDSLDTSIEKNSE

[8] = AUC in rat at 10 mg/kg, po; type: ADME, organism-based; design: dose 10 mg/kg, route oral; details: plasma
[9] = target: T3, Adenosine receptor A2b (Homo sapiens, UniProt P29275); experiment: Displacement of [3H]MRS1754 from human adenosine A2B receptor
T3 sequence (P29275 whole entry): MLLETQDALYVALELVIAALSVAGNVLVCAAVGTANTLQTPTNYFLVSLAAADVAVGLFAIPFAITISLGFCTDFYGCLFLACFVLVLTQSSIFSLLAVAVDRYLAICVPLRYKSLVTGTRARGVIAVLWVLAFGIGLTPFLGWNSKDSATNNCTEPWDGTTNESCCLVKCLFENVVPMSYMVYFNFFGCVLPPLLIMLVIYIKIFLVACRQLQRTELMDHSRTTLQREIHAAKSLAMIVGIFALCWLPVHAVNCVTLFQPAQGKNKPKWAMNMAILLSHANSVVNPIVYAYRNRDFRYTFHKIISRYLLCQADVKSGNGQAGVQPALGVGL

[10] = Drug level in rat brain at 10 mg/kg, po after 2 hrs; type: ADME, organism-based; design: dose 10 mg/kg, route oral; details: read-out: Drug uptake
[11] = Oral bioavailability in rat at 10 mg/kg; type: ADME, organism-based; details: in vivo
[12] = Dissociation constant, pKa of the compound; type: physicochemical
[13] = Solubility in water; type: physicochemical
[14] = target: Adenosine receptor A2a (Rattus norvegicus, UniProt P30543); experiment: biochemical
Chain of Adenosine receptor A2a (Rattus norvegicus, UniProt P30543) (P30543 whole entry): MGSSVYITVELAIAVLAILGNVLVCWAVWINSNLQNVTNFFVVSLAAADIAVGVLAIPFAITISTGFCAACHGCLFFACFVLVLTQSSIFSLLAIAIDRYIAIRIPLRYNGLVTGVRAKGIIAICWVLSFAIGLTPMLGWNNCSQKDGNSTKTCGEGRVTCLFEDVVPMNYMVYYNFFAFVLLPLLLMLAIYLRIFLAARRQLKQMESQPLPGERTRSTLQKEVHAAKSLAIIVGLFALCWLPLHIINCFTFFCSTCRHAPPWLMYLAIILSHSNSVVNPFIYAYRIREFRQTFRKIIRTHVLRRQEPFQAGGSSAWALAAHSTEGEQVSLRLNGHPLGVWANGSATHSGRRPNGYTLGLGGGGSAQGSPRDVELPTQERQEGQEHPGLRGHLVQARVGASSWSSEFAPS
Description: Displacement of [3H]ZM241385 from rat recombinant adenosine A2A receptor expressed in CHO cells

SMILES | Ki [1] | Ki [2] | Ratio Ki [3] | concentration at 2 h [10] | Ki [14] | other results
CN(C)CC(=O)Nc1cc(-n2cccn2)nc(-c2ccco2)n1 | 28 nM | 5.2 nM | 5 | – | – | –
Nc1cc(-n2cccn2)nc(-c2ccco2)n1 | 56 nM | 2.9 nM | 20 | – | – | CLint scaled [4]: 73 mL/min/kg; solubility ([5]; PBS, read-out: Solubility): 80 µg/mL (≈ 352 µM)
CN1CCN(CC(=O)Nc2cc(-n3cccn3)nc(-c3ccco3)n2)CC1 | 266 nM | 2.7 nM | 99 | 2700 ng/g | 26 nM | logD [6]: 2.2; Ki [7]: 660 nM; AUC [8]: 2870 ng·h/mL; Ki [9]: 35 nM; CLint scaled [4]: 6 mL/min/kg; bioavailability [11]: 79%; pKa [12]: 7.9; solubility [13]: > 25000 µg/mL
COCCOc1ccc(N2CCN(CCn3ncc4c3nc(N)n3nc(-c5ccco5)nc43)CC2)cc1 [PRELADENANT] | – | – | – | – | – | solubility ([5]; buffer): < 0.01 µg/mL
CN1CCN(CC(=O)Nc2cc(-c3nccs3)nc(-c3ccco3)n2)CC1 | 218 nM | 0.9 nM | 238 | 3200 ng/g | 11 nM | –
Cc1cc(C)n(-c2cc(NC(=O)CN3CCN(C)CC3)nc(-c3ccco3)n2)n1 | 1730 nM | 2 nM | 864 | 600 ng/g | 14 nM | –
O=C(CN1CCOCC1)Nc1cc(-n2cccn2)nc(-c2ccco2)n1 | 63 nM | 1.6 nM | 39 | – | – | –
CC(=O)Nc1cc(-n2cccn2)nc(-c2ccco2)n1 | 9.2 nM | – | 15 | – | – | –
